The text below walks through data of PubChem BioAssay (NCI).

Values joined by “and” are separate entries in the source; they are usually repeats but may differ in a detail not shown here. Identical values can stand only once.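 Tested at 5 concentrations; 48 h exposure; 96-well plates; endpoints linearly interpolated, else capped at highest concentration. GI50 = concentration required for 50% inhibition of growth. TGI: total growth inhibition.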

Some test systems named below: ACHN renal; SK-MEL-2 melanoma; PC-3 prostate; OVCAR-5 ovarian; SF-295 CNS; NCI/ADR-RES ovarian; DU-145 prostate; HT29 colon; RXF 393 renal; UACC-62 melanoma.
Common to all, as to test: NCI-60 cell line screen, 48 h

In the case of `Nc1ccccc1NC(=O)c1ccc(CN2CCC/C(=C\c3cccc(Cl)c3)C2=O)cc1`, the GI50 in the test on ACHN renal is 0.129 µM; with SK-MEL-2 melanoma, 1.23 µM; in the test on PC-3 prostate it was 0.463 µM; with OVCAR-5 ovarian, 0.45 µM; in the test on SF-295 CNS it was 1.05 µM; with NCI/ADR-RES ovarian, 0.198 µM. For the same molecule, the GI50 with DU-145 prostate is 0.432 µM; in the test with HT29 colon, 0.144 µM; in the test on RXF 393 renal, 0.277 µM; in the test on UACC-62 melanoma, 0.0517 µM. Also, the TGI in the test on ACHN renal was 6.32 µM; in the test on SK-MEL-2 melanoma, 18.2 µM; in the test on PC-3 prostate, 14.1 µM; with OVCAR-5 ovarian it was > 100 µM; with SF-295 CNS, 15.2 µM; with NCI/ADR-RES ovarian it was 6.09 µM. Moreover, the TGI was 25.7 µM in the test with DU-145 prostate, 1.89 µM in the test on HT29 colon, 5.23 µM in the test on RXF 393 renal and 14.6 µM in the test with UACC-62 melanoma.
Take `Oc1cc(O)c2c(=S)cc(-c3ccc(Cl)cc3)oc2c1`: the GI50 in the test with ACHN renal was 2.61 µM; in the test on SK-MEL-2 melanoma, 2.61 µM; in the test with PC-3 prostate, 2.84 µM; with OVCAR-5 ovarian, 11.1 µM; in the test on SF-295 CNS, 5.67 µM; in the test on NCI/ADR-RES ovarian, 2.8 µM. Further, the GI50 in the test on DU-145 prostate was 4.09 µM; with HT29 colon, 19.7 µM; in the test on RXF 393 renal, 3.15 µM; in the test on UACC-62 melanoma it was 3.01 µM. The TGI in the test on ACHN renal is 11.1 µM; with SK-MEL-2 melanoma, 7.46 µM; in the test on PC-3 prostate, 12.3 µM; in the test on OVCAR-5 ovarian, 32.5 µM; in the test with SF-295 CNS, 22.9 µM; in the test on NCI/ADR-RES ovarian, 10.7 µM. The TGI with DU-145 prostate was 35.1 µM; with HT29 colon it was 39.7 µM; in the test on RXF 393 renal, 12.5 µM; in the test with UACC-62 melanoma, 14.2 µM.
Regarding `C[C@H]1CC[C@@H]2[C@@H](C)[C@H]3[C@H](C[C@H]4[C@@H]5CC=C6C[C@@H](O)CC[C@]6(C)[C@H]5C[C@H](O)[C@]34C)N2C1`, the TGI with ACHN renal, with SK-MEL-2 melanoma, with PC-3 prostate, with OVCAR-5 ovarian, in the test with SF-295 CNS and in the test with NCI/ADR-RES ovarian was > 100 µM in each case. In addition, the TGI in the test with DU-145 prostate, in the test with HT29 colon, with RXF 393 renal and in the test on UACC-62 melanoma was > 100 µM throughout.
Regarding `CCc1c(Cl)nc(Cl)nc1Cl`, the TGI with ACHN renal worked out at 0.219 µM; with PC-3 prostate it was 4.06 µM; in the test on OVCAR-5 ovarian it was 1.3 µM; in the test with SF-295 CNS, 5.84 µM; in the test on NCI/ADR-RES ovarian, 11.3 µM; with DU-145 prostate it was 6.35 µM. Further, the TGI with HT29 colon was determined as 1.3 µM; in the test on RXF 393 renal, 0.968 µM; in the test with UACC-62 melanoma, 2.28 µM.
For `CC1OC(OC2CC(O)C3(CO)C4C(O)CC5(C)C(C6=CC(=O)OC6)CCC5(O)C4CCC3(O)C2)C(O)C(O)C1O` (stereo not drawn), the GI50 with ACHN renal is 0.01 µM; in the test with SK-MEL-2 melanoma, 0.0187 µM; in the test with PC-3 prostate, < 0.0144 µM; with OVCAR-5 ovarian, 0.0147 µM; with SF-295 CNS, < 0.0138 µM; in the test with NCI/ADR-RES ovarian, < 0.0122 µM. The GI50 was < 0.012 µM with DU-145 prostate, < 0.0147 µM in the test on HT29 colon, < 0.0129 µM with RXF 393 renal and 0.0381 µM in the test with UACC-62 melanoma. In addition, the TGI was 0.0191 µM with ACHN renal; 0.0754 µM with SK-MEL-2 melanoma; 0.0437 µM in the test with PC-3 prostate; 0.0311 µM in the test with OVCAR-5 ovarian; 0.0291 µM in the test with SF-295 CNS; < 0.0152 µM in the test with NCI/ADR-RES ovarian. For the same molecule, the TGI with DU-145 prostate was < 0.0152 µM; in the test with HT29 colon it was 0.102 µM; with RXF 393 renal, < 0.0202 µM; in the test with UACC-62 melanoma, 0.173 µM.
As for `COc1cc([C@@H]2c3cc4c(cc3[C@H](O)[C@H]3COC(=O)[C@H]23)OCO4)cc(OC)c1OC`, the GI50 in the test with ACHN renal was < 0.01 µM; in the test on SK-MEL-2 melanoma, < 0.005 µM; in the test with PC-3 prostate, < 0.01 µM; in the test with SF-295 CNS it was < 0.01 µM; in the test on DU-145 prostate, < 0.01 µM; in the test with HT29 colon it was < 0.01 µM. The GI50 with RXF 393 renal and in the test on UACC-62 melanoma was < 0.01 µM each time. Besides, the TGI is > 100 µM and 50 µM in the test on ACHN renal; > 100 µM and 50 µM in the test with PC-3 prostate; > 100 µM and 46.3 µM in the test on OVCAR-5 ovarian; < 0.005 µM with NCI/ADR-RES ovarian; 0.5 µM with DU-145 prostate; > 100 µM and 34.7 µM in the test on UACC-62 melanoma.
On to `O=C(CCCc1ccccn1)c1ccccc1`, for which the TGI in the test on ACHN renal, in the test on SK-MEL-2 melanoma, in the test with PC-3 prostate, in the test on OVCAR-5 ovarian, in the test with SF-295 CNS and with NCI/ADR-RES ovarian was > 100 µM in each case. For the same molecule, the TGI in the test on DU-145 prostate, in the test on HT29 colon, in the test on RXF 393 renal and with UACC-62 melanoma was > 100 µM throughout.
Take `N#Cc1cccc(NC(=O)c2oc3ccccc3c2-c2cnn(-c3ccccc3)c2)c1`: the GI50 was > 500 µM in the test on ACHN renal; > 500 µM in the test on SK-MEL-2 melanoma; > 500 µM with PC-3 prostate; > 500 µM in the test on OVCAR-5 ovarian; 430 µM with SF-295 CNS; > 500 µM with NCI/ADR-RES ovarian. For the same molecule, the GI50 is > 500 µM with DU-145 prostate, > 500 µM with HT29 colon, 185 µM in the test on RXF 393 renal and > 500 µM in the test on UACC-62 melanoma. Besides, the TGI in the test on ACHN renal, in the test with SK-MEL-2 melanoma, in the test on PC-3 prostate, in the test with OVCAR-5 ovarian, in the test with SF-295 CNS and with NCI/ADR-RES ovarian was > 500 µM in each case. Besides, the TGI with DU-145 prostate, with HT29 colon, in the test with RXF 393 renal and in the test on UACC-62 melanoma was > 500 µM each time.
Regarding `CCOC(=O)C1=C(C)NC2SC(=O)/C(=C\c3ccccc3)N2C1c1ccccc1` (stereo not drawn), the GI50 in the test on ACHN renal was > 100 µM; in the test with SK-MEL-2 melanoma, > 100 µM; in the test with PC-3 prostate, 31 µM; with OVCAR-5 ovarian it was > 100 µM; with SF-295 CNS, > 100 µM; in the test on NCI/ADR-RES ovarian it was > 100 µM. Further, the GI50 in the test with DU-145 prostate, in the test with HT29 colon, in the test on RXF 393 renal and in the test on UACC-62 melanoma was > 100 µM each time. For the same molecule, the TGI in the test with ACHN renal, with SK-MEL-2 melanoma, with PC-3 prostate, in the test on OVCAR-5 ovarian, in the test on SF-295 CNS and in the test on NCI/ADR-RES ovarian was > 100 µM each time. The TGI in the test on DU-145 prostate, with HT29 colon, with RXF 393 renal and with UACC-62 melanoma was > 100 µM throughout.
